US20040014648A1, “Methods for the prevention and/or the treatment of neurological disorders” (FAUST PHARMACEUTICALS, priority 2002, published 2004)

Experiments:
[1] = tested on: primary cultures of neurons, isolated from the rat brain cortex; conditions: 3-NP 400 μM, 24 hours; compound at 0.1, 1 and 5 μM; FIG. 2
[2] = tested on: primary cultures of neurons, isolated from the rat brain cortex; assay: Neuroprotection assay: Ionomycin-evoked neuron cell death (LDH release); assay type: cell-based; conditions: FIG. 4
Protocol: (§1) Primary cortical neuron cultures.
Assessment of neuron cell death.
The neurons were treated in vitro with 5 μM of Ionomycin (Sigma), a calcium ionophore, in presence of 10 μM of 1-Naphthol, in absence or in presence of 5 or 10 μM of 3-methylcholanthrene (3-MC, Aldrich), an UGT inducer which allows the in situ glucuronidation of 1-Naphthol.

[3] = tested on: primary cultures of neurons isolated from the rat brain cortex; assay: Glutamate level determination (chemiluminescent enzymatic assay); assay type: cell-based; conditions: FIG. 5
Protocol: as §1
Assessment of glutamate release. Glutamate released by neurons in culture was evaluated in aliquots of the supernatants by means of a chemiluminescent enzymatic assay (Israel et al., Neurochem Int. 1993 Jan. 22(1):53-8).
The glutamate released by neurons was followed by an enzymatic assay coupled to a chemiluminescent reaction. […]

Q: For CN1C(=O)CN=C(c2ccccc2)c2cc(Cl)ccc21 [Diazepam], which “protection of neurons from 3-NP-evoked cell death” value [1] is on record?
A: Its value is “protects neurons from 3-NP at all tested doses”.

Q: Which “protective effect with in situ glucuronidation by 3-MC” value ([2]; Ionomycin 5 μM, compound at 10 μM plus 3-MC 5 or 10 μM) does the source give for Oc1cccc2ccccc12 [1-Naphthol] here?
A: The value was “reinforces, dose dependently, the protective effect”.

Q: And the “protection of neurons from Ionomycin-evoked cell death” value ([2]; Ionomycin 5 μM, compound at 10 μM)?
A: Its value is “protects neurons from Ionomycin-evoked cell death”.

Q: What about the “glutamate release by neurons” value ([3]; compound at 1 μM and 10 μM (lanes 4, 7)) of the same compound?
A: Its value is “at both concentrations reduces the release of glutamate”.

Q: What about the “glutamate release with glucuronidation by 3-MC” value ([3]; compound at 10 μM plus 3-MC 1 or 5 μM) of the same compound?
A: The value was “reinforces, dose dependently, the decrease of glutamate”.

Q: What about the “glutamate release by neurons” value ([3]; compound at 10 μM) of the same compound?
A: Its value is “reduces glutamate release”.

Q: And the “significance of the improved decrease of glutamate with 3-Methylcholanthrene” value ([3]; compound at 1 or 10 μM plus 3-Methylcholanthrene 5 μM (lanes 6, 9))?
A: Its value is “statistically significant at the highest dose of 3-Methylcholanthrene”.

Q: Which results are given for Cc1ccc2cc3c(ccc4ccccc43)c3c2c1CC3 [3-Methylcholanthrene, 3-methylcholanthrene, reference compound]?
A: protective effect against the toxicity induced by Ionomycin ([2]; Ionomycin 5 μM, compound alone at 5 or 10 μM (lanes 5, 6)): no protective effect against the toxicity induced by Ionomycin; effect on the natural death of neurons ([2]; compound alone at 5 or 10 μM, no Ionomycin (lanes 2, 3)): no effect on the natural death of neurons; glutamate release by neurons ([3]; compound alone at 5 μM (lane 3)): have no effect on glutamate release
